US12109251B2, “Satiation peptide administration” (University of Florida Research Foundation, Incorporated, priority 2009, dated 2024)

Experiments:
mice = assay: PYY mouth spray, food intake after 24 hours fasting; format: in vivo
Experimental: Synthetic PYY was purchased from Bachem, Inc USA (Cat #H-6042) and diluted in sterile H2O. Sterile un-used perfume sample vials (Saphora) were utilized to administer PYY in the form of a mouth spray. It was estimated that the volume of one spray approximates to about […].
Mice were conditioned three times to 24 hours fasting starting at the beginning of the dark cycle and ending at the end of the light cycle. At the end of the fasting cycle and as a part of conditioned routine, a sterile water spray had been administered into the mouth. All the experiments were done during the first hour of the dark cycle after fasting. Once the dark cycle started, mice were sprayed once with either PYY or sterile H2O in a total volume of […] per spray. After the treatment, mice were returned to their cages and ten minutes later pre-weighted chow was provided. One hour later, the amount of consumed chow had been recorded by measuring the leftover amount. When the experiments were repeated, mice were fasted only once a week with the control and experimental groups rotated.

male Balb/c mice = assay: Territorial Resident/Intruder aggression test; format: in vivo
Experimental: Data presented in this report indicate that long-term expression of Peptide YY3-36, an agonist of NPY Y receptors with higher affinity for the Y2 receptor, abolish aggressive behavior in mice. To test these observations, we used the territorial Resident/Intruder (R/I) aggressive paradigm (6), a standard test for evaluating rodent aggressive behavior. The test was applied on three different occasions using different intruders. Tests were recorded and analyzed in a blind manner using the Observer v5.0 software (Noldus Information Technology) (see videos, Supplementary data) (7).
Behavioral studies: Aggression territorial-Intruder test were performed on week 24 after the treatment (6). Briefly, PYY-, or GFP-treated resident mice were individually housed for at least two weeks prior to testing. Bedding from cages was not changed during the testing period to avoid unnecessary stress. On the day of the experiment, a smaller size intruder was placed into the resident cage for 10 minutes and the resident's behavior was recorded with a video camera. Each experiment was repeated 3 times on three different occasions and with different intruders. The videos from the experiments were analyzed for non-aggressive and aggressive behavior by an expert in a blind manner using The Observer v5.0 software (Noldus Information Technology) (7).
Data was reported in mean±SEM.

Substance	dose response of PYY mouth spray on FI after one hour (mice; mouth spray)	less food consumed in one hour compared to H2O spray control (mice; one mouth spray, 5 ug per 100 g of body weight, after 24 h fasting, average, P=0.03) [%]	chase duration (male Balb/c mice; vs control mice)	chase events (male Balb/c mice; vs control mice)	attack duration (male Balb/c mice; vs controls)	attack latency (male Balb/c mice; vs controls)	normal social interactions manifested by sniffing (male Balb/c mice; vs controls)	threat duration (male Balb/c mice; vs controls)	threat events (male Balb/c mice; vs controls)	attack events (male Balb/c mice; week 24 after treatment, n=5, mean±SEM) [events per 10 min]	decrease in the number of attack events compared to controls (male Balb/c mice; week 24 after treatment, n=5, p<0.05) [fold]
PYY: Synthetic PYY purchased from Bachem (Cat #H-6042), diluted in sterile H2O, given as a mouth spray [Peptide YY]	significant PYY dose response effect	15									
PYY3-36: endogenous NPY Y2 receptor agonist; salivary level raised long-term by rAAV-PYY in the treated mice			decrease	decrease	significant decrease	significant increase	did not change	significant decrease	significant decrease	0.07±0.067	44
